Test results: patent US6740657B2, “Aminomethyl-pyrroloquinazoline compounds as thrombin receptor antagonists” (Ortho-McNeil Pharmaceutical, Inc., priority 2001, dated 2004)
Read-outs that look alike come from different tables or passages of the source.

What was measured:
[1] = test system: platelet aggregation stimulated by thrombin (gel-filtered platelets); assay: In vitro inhibition of thrombin-induced gel-filtered platelet aggregation; type: cell-based, Human; conditions: agonist thrombin; for IC50: read-out: GFP Aggr. IC50 (μM), Thr; for inhibition at 50 µM: Homo sapiens, Platelet, read-out: GFP Aggr. % Inhibition, Thr
Method: (§1) In Vitro Inhibition of Thrombin-Induced Gel-Filtered Platelet Aggregation Assay
(§2) The percentage of platelet aggregation is calculated as an increase in light transmission of compound-treated platelet concentrate vs. control-treated platelet concentrate. Human blood is obtained from drug free, normal donors in tubes containing 0.13 M sodium citrate. Platelet rich plasma (PRP) is collected by centrifugation of whole blood at 200×g for 10 min at 25° C. The PRP (5 mL) is gel filtered through Sepharose 2B (bed volume 50 mL), and the platelet count is adjusted to 2×10^7 platelets per sample. The following constituents are added to a siliconized cuvette: concentrated platelet filtrate and Tyrode's buffer (0.14 M NaCl, 0.0027 M KCl, 0.012 M NaHCO3, 0.76 mM Na2HPO4, 0.0055 M glucose, 2 mg/mL BSA and 5.0 mM HEPES@pH 7.4) in an amount equal to 350 μL, 50 μL of 20 mM calcium and 50 μL of the test compound. Aggregation is monitored in a BIODATA aggregometer for the 3 min following the addition of agonist (thrombin 50 μL of 1 unit/mL).
(§3) Table 5 contains IC50 values (μM) or % inhibition@50 μM of the compounds against platelet aggregation stimulated (GFP Aggr.) by thrombin or TRAP-6 (Thr or TRAP-6) and IC50 values (μM) in a thrombin receptor (PAR-1) binding assay (Binding). The compounds of Table 5 correspond to those shown on Table 4.

[2] = test system: platelet aggregation stimulated by TRAP-6 (gel-filtered platelets); assay: In vitro inhibition of TRAP-6-induced gel-filtered platelet aggregation; type: cell-based, Human; conditions: for IC50: agonist TRAP-6, read-out: GFP Aggr. IC50 (μM), TRAP-6; for inhibition at 50 µM: read-out: GFP Aggr. % Inhibition, TRAP-6
Method: as §1, §2, §3

[3] = target: T1, thrombin receptor (PAR-1) (Homo sapiens, UniProt P25116); assay: In vitro thrombin receptor binding assay (CHRF membranes, tritiated 721-40); conditions: thrombin receptor (PAR-1) binding, read-out: Binding IC50 (μM), Thr.
T1 construct: CHRF membranes (Jones, Biochim. Biophys. Acta 1992, 1136, 272) are thawed from −70° C; endogenous in cells; the full cell line name is own knowledge
T1 sequence (P25116 22-425): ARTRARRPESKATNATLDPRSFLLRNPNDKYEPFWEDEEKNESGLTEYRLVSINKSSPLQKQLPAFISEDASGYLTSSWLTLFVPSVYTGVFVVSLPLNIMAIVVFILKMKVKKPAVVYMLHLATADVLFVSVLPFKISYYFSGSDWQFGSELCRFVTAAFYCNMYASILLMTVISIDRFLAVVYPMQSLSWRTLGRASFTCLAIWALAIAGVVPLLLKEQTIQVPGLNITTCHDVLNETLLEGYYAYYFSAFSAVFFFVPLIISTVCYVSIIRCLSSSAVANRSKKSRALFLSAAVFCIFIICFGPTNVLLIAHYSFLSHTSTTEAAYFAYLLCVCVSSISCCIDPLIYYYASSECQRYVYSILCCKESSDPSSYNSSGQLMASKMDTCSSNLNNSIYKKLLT
Method: In Vitro Thrombin Receptor Binding Assay
CHRF membranes (Jones, Biochim. Biophys. Acta 1992, 1136, 272) are thawed from −70° C., centrifuged at maximum speed for 5 min, washed twice with binding buffer (50 mM HEPES containing 5 mM MgCl2 and 0.1% BSA), and re-suspended in binding buffer (25 μg/[…]). 100 μL of membranes are added to the 24-Wallac plates and delivered to the Tomtech apparatus. In a typical experiment, 6 μL of samples (from a 125 μg/mL intermediary plate, 20% DMSO) and 44 μL buffer are delivered to the plates (final conc. of compounds is 3.7 μg/mL, 0.6% DMSO). Similarly, 6 μL 20% DMSO and 44 μL buffer are delivered to both column 1 (NSB) and column 12 (TB). 10 μL Ser-pFPhe-hArg-Leu-hArg-Lys-Tyr-NH2 (721-40; 500 μM in deionized water) is added to column 1.50 μL tritiated 721-40 (specific activity 46 Ci/mmol) is added to all the wells. The plates are mixed well for 20 seconds, incubated for 30 min, and then harvested with 10 mM HEPES/138 mM NaCl using the Skatron harvester. The filters (GF/C Brandel FPXLR 296) are presoaked 3 h in 0.5% polyethylenimine in HEPES/0.1M N-acetylglucosamine) are set in saran wrap and dried for 3 min in the microwave, and placed in sample bags (Wallac 1450-432). 4.5 mL scintillation fluid (Wallac, Betaplate Scint 1205-440) is added. The bags are sealed, placed in filter cassettes (Wallac 1450-104), and analyzed on the microbeta counter. […]

[4] = Homo sapiens, Platelet, agonist TRAP-6, % inhibition @ 50 μM

Question: With `CN(C)Cc1cn(Cc2c(Cl)cccc2Cl)c2ccc3nc(N[C@@H](Cc4ccccc4)C(=O)N[C@@H](CCN)C(=O)NCc4ccccc4)nc(N)c3c12` [Compound 2, α-[[1-amino-7-[(2,6-dichlorophenyl)methyl]-9-[(dimethylamino)methyl]-7H-pyrrolo[3,2-f]quinazolin-3-yl]amino]-N-[(1S)-3-amino-1-[[(phenylmethyl)amino]carbonyl]propyl]-(α^1S)-benzenepropanamide] as the compound, how does the IC50 [1] read?
Answer: 13 µM

Question: And the IC50 [2]?
Answer: 3 µM

Question: `CN(C)Cc1cn(Cc2c(Cl)cccc2Cl)c2ccc3nc(N(C)C)nc(N)c3c12` [Compound 3, 7-[(2,6-dichlorophenyl)methyl]-9-[(dimethylamino)methyl]-N^3,N^3-dimethyl-7H-pyrrolo[3,2-f]quinazoline-1,3-diamine] was tested. Which inhibition at 50 µM ([1]; % inhibition @ 50 μM) did it give?
Answer: 27%

Question: What about the inhibition at 50 µM [2, 4] of the same compound?
Answer: 40%

Question: For `CN(C)Cc1cn(Cc2c(Cl)cccc2Cl)c2ccc3nc(NC4CC4)ncc3c12` [Compound 4, 3-(cyclopropylamino)-7-[(2,6-dichlorophenyl)methyl]-N,N-dimethyl-7H-pyrrolo[3,2-f]quinazoline-9-methanamine], which inhibition at 50 µM ([1]; % inhibition @ 50 μM) is on record?
Answer: 30%

Question: What about the inhibition at 50 µM [2, 4] of the same compound?
Answer: 20%

Question: Which “GFP Aggr. % Inhibition, Thr” value ([1]; % inhibition @ 50 μM) does the source give for `Nc1nc(Cl)nc2ccc3c(c(CN4CCCC4)cn3Cc3c(Cl)cccc3Cl)c12` [Compound 5, 3-chloro-7-[(2,6-dichlorophenyl)methyl]-9-(1-pyrrolidinylmethyl)-7H-pyrrolo[3,2-f]quinazolin-1-amine] here?
Answer: 16%

Question: And the “GFP Aggr. % Inhibition, TRAP-6” value ([2]; agonist TRAP-6, % inhibition @ 50 μM)?
Answer: 32%

Question: For `COc1nc(Cl)nc2ccc3c(c(CN(C)C)cn3Cc3c(Cl)cccc3Cl)c12` [Compound 6, 3-chloro-7-[(2,6-dichlorophenyl)methyl]-1-methoxy-N,N-dimethyl-7H-pyrrolo[3,2-f]quinazoline-9-methanamine], which inhibition at 50 µM ([1]; % inhibition @ 50 μM) is on record?
Answer: 40%

Question: What about the IC50 ([2]; Homo sapiens, Platelet) of the same compound?
Answer: 31 µM

Question: `CN(C)Cc1cn(Cc2c(Cl)cccc2Cl)c2ccc3nc(Cl)nc(N)c3c12` [Compound 7, 1-amino-3-chloro-7-[(2,6-dichlorophenyl)methyl]-N,N-dimethyl-7H-pyrrolo[3,2-f]quinazoline-9-methanamine] was tested. Which inhibition at 50 µM ([1]; % inhibition @ 50 μM) did it give?
Answer: 14%

Question: What about the inhibition at 50 µM [2, 4] of the same compound?
Answer: 3%

Question: What does the source list for “N^3-cyclopropyl-7-[(2,6-dichlorophenyl)methyl]-9-[(dimethylamino)methyl]-7H-pyrrolo[3,2-f]quinazoline-1,3-diamine [Compound 1]”?
Answer: IC50 [1]: 21 µM; IC50 [2]: 13 µM; IC50 [3]: 9.6 µM
